Test results: article PMC4536076, “Chemical Library Screening and Structure-Function Relationship Studies Identify Bisacodyl as a Potent and Selective Cytotoxic Agent Towards Quiescent Human Glioblastoma Tumor Stem-Like Cells” (PLoS ONE, 2015)
Counter-ions that a name gives are not always drawn.

How the values were obtained:
proliferating TG1 GSCs = settings: primary screen, 50 μM, 24 h
Procedure: (§1) Proliferating or quiescent TG1 GSCs were seeded (30 000 and 40 000 viable cells/well, respectively) into 96-well opaque bottom plates (Greiner) with the Biomek FX robot (Beckman Coulter). Each compound from the Prestwick Library was then added (final concentration: 50 μM; 1% DMSO). Each molecule was tested once. Negative control wells (12/96 per assay plate) contained cells treated with 1% DMSO (final concentration) and positive control wells (4/96 per assay plate) contained cells treated with the fungal toxin ophiobolin A (Sigma Aldrich) at 50 μM with 1% DMSO. […] Luminescence in each well was measured with the Victor3 plate reader (PerkinElmer).
(§2) Relative ATP levels in each well were determined by calculating the percentage of luminescent signal in the well with respect to the average signal measured in negative control wells.
(§3) Primary screen hits were further tested in duplicate, at two concentrations (50 and 5 μM) on proliferating and quiescent TG1 GSCs. Cell plating and treatment with compounds were as for the primary screen. Hit selection/confirmation criteria for quiescent cells were as described above.

quiescent TG1 GSCs = settings: primary screen, 50 μM, 24 h
Procedure: as §1, §2, §3

Compound | Activity on proliferating TG1 GSCs (hit compounds reducing ATP levels) (proliferating TG1 GSCs) | Activity on quiescent TG1 GSCs (hit compounds reducing ATP levels) (quiescent TG1 GSCs) | also measured
CCCCC(CC)CNC(=N)NC(=N)NCCCCCCNC(=N)NC(=N)NCC(CC)CCCC (stereo not drawn) [Alexidine dihydrochloride] | yes | yes | –
CN(C)c1nc(N(C)C)nc(N(C)C)n1 [Altretamine] | – | – | Activity on proliferating TG1 CSCs (hit compounds increasing ATP levels) (proliferating TG1 GSCs): yes
CCCCc1oc2ccccc2c1C(=O)c1cc(I)c(OCCN(CC)CC)c(I)c1 [Amiodarone hydrochloride] | yes | yes | –
Clc1ccc(CCC(Cn2ccnc2)Sc2c(Cl)cccc2Cl)cc1 (stereo not drawn) [Butoconazole nitrate] | yes | yes | –
CC[C@H]1CN2CCc3cc(OC)c(OC)cc3[C@@H]2C[C@@H]1C[C@H]1NCCc2cc(O)c(OC)cc21.Cl.Cl.O.O.O.O.O.O.O [Cephaeline dihydrochloride heptahydrate] | yes | yes | –
[H]/N=C(\N/C(=N/[H])NCCCCCCNC(=N)NC(=N)Nc1ccc(Cl)cc1)Nc1ccc(Cl)cc1 [Chlorhexidine] | yes | – | –
Oc1c(I)cc(Cl)c2cccnc12 [Clioquinol] | yes | – | –
CCN(CC)CCOc1ccc(C(=C(Cl)c2ccccc2)c2ccccc2)cc1.O=C(O)CC(O)(CC(=O)O)C(=O)O [Clomiphene citrate (Z, E)] | yes | yes | –
Clc1ccccc1C(c1ccccc1)(c1ccccc1)n1ccnc1 [Clotrimazol] | yes | yes | –
Nc1ncnc2c1ncn2[C@@H]1O[C@@H]2COP(=O)(O)O[C@H]2[C@H]1O [Cyclic AMP] | – | – | Activity on proliferating TG1 CSCs (hit compounds increasing ATP levels) (proliferating TG1 GSCs): yes
CC/C(=C(/CC)c1ccc(O)cc1)c1ccc(O)cc1 [Diethylstilbestrol] | yes | yes | –
C[C@H]1O[C@@H](O[C@H]2[C@@H](O)C[C@H](O[C@H]3[C@@H](O)C[C@H](O[C@H]4CC[C@@]5(C)[C@H](CC[C@@H]6[C@@H]5C[C@@H](O)[C@]5(C)[C@@H](C7=CC(=O)OC7)CC[C@]65O)C4)O[C@@H]3C)O[C@@H]2C)C[C@H](O)[C@@H]1O [Digoxin] | yes | – | –
CN(C)[C@@H]1C(O)=C(C(N)=O)C(=O)[C@@]2(O)C(O)=C3C(=O)c4c(O)ccc(Cl)c4[C@@H](O)[C@H]3C[C@@H]12.Cl [Dimeclocycline hydrochloride] | yes | – | –
Cl.Cl.Fc1ccc(C(OCCN2CCN(CCCc3ccccc3)CC2)c2ccc(F)cc2)cc1 [GBR 12909 dihydrochloride] | yes | yes | –
Cc1cc2c(C(C)C)c(O)c(O)c(C=O)c2c(O)c1-c1c(C)cc2c(C(C)C)c(O)c(O)c(C=O)c2c1O [Gossypol] | yes | yes | –
CC(C(=O)O)c1ccc(N2Cc3ccccc3C2=O)cc1 (stereo not drawn) [Indoprofen] | yes | – | –
Clc1ccc(C(Cn2ccnc2)OCc2c(Cl)cccc2Cl)c(Cl)c1 (stereo not drawn) [Isoconazole] | yes | yes | –
CC(=O)O[C@H]1C[C@H](O[C@H]2[C@@H](O)C[C@H](O[C@H]3[C@@H](O)C[C@H](O[C@H]4CC[C@@]5(C)[C@H](CC[C@@H]6[C@@H]5C[C@@H](O)[C@]5(C)[C@@H](C7=CC(=O)OC7)CC[C@]65O)C4)O[C@@H]3C)O[C@@H]2C)O[C@H](C)[C@H]1O[C@@H]1O[C@H](CO)[C@@H](O)[C@H](O)[C@H]1O [Lanatoside C] | yes | yes | –
CC[C@@H](C(=O)[C@@H](C)[C@@H](O)[C@H](C)CCc1ccc(C)c(O)c1C(=O)[O-])[C@H]1O[C@](CC)([C@H]2CC[C@](O)(CC)[C@H](C)O2)C[C@@H]1C.[Na+] [Lasalocid sodium salt] | yes | yes | –
Cc1cccc(C)c1NC(=O)CN1CCN(CCCC(c2ccc(F)cc2)c2ccc(F)cc2)CC1 [Lidoflazine] | yes | – | –
O[C@H]1[C@H]2c3cc4c(cc3CN3CCC(=C[C@@H]1O)[C@H]23)OCO4 [Lycorine hydrochloride] | yes | yes | –
Cc1cccc(CN2CCN(C(c3ccccc3)c3ccc(Cl)cc3)CC2)c1.Cl.Cl (stereo not drawn) [Meclozine dihydrochloride] | yes | yes | –
OC(c1cc(C(F)(F)F)nc2c(C(F)(F)F)cccc12)C1CCCCN1 (stereo not drawn) [Mefloquine hydrochloride] | yes | yes | –
CC1=CC(=O)c2ccccc2C1=O [Menadione] | yes | yes | –

Compound | Activity on proliferating TG1 GSCs (hit compounds reducing ATP levels) (proliferating TG1 GSCs) | Activity on quiescent TG1 GSCs (hit compounds reducing ATP levels) (quiescent TG1 GSCs) | also measured
CN1CCCC(CC2c3ccccc3Sc3ccccc32)C1 (stereo not drawn) [Metixene hydrochloride] | yes | – | –
Clc1ccc(COC(Cn2ccnc2)c2ccc(Cl)cc2Cl)c(Cl)c1 (stereo not drawn) [Miconazole] | yes | yes | –
CCOC(=O)C1=C(C)NC(C)=C(C(=O)OC)C1c1cccc([N+](=O)[O-])c1 (stereo not drawn) [Nitrendipine] | yes | – | Activity on quiescent TG1 CSCs (hit compounds increasing ATP levels) (quiescent TG1 GSCs): yes
CNCCC=C1c2ccccc2C=Cc2ccccc21 [Norcyclobenzaprine] | yes | – | –
OCCN1CCN(CCCN2c3ccccc3Sc3ccc(Cl)cc32)CC1 [Perphenazine] | yes | – | –
CC(COc1ccccc1)N(CCCl)Cc1ccccc1 (stereo not drawn) [Phenoxybenzamine hydrochloride] | – | – | Activity on proliferating TG1 CSCs (hit compounds increasing ATP levels) (proliferating TG1 GSCs): yes
CCN1CCN(C(=O)N[C@@H](C(=O)N[C@@H]2C(=O)N3[C@@H]2SC(C)(C)[C@@H]3C(=O)O)c2ccccc2)C(=O)C1=O [Piperacillin sodium salt] | yes | – | –
COc1cc(/C=C/C(=O)N2CCC=CC2=O)cc(OC)c1OC [Piperlongumine] | yes | – | –
CCC1(c2ccccc2)C(=O)NCNC1=O [Primidone] | – | – | Activity on proliferating TG1 CSCs (hit compounds increasing ATP levels) (proliferating TG1 GSCs): yes
CC(C)(Sc1cc(C(C)(C)C)c(O)c(C(C)(C)C)c1)Sc1cc(C(C)(C)C)c(O)c(C(C)(C)C)c1 [Probucol] | – | – | Activity on proliferating TG1 CSCs (hit compounds increasing ATP levels) (proliferating TG1 GSCs): yes
CNCCCC1c2ccccc2C=Cc2ccccc21 [Protriptyline hydrochloride] | yes | – | –
COC(=O)[C@H]1[C@H]2C[C@@H]3c4[nH]c5cc(OC)ccc5c4CCN3C[C@H]2C[C@@H](OC(=O)/C=C/c2cc(OC)c(OC)c(OC)c2)[C@@H]1OC [Rescinnamin] | – | yes | –
CO[C@H]1/C=C/O[C@@]2(C)Oc3c(C)c(O)c4c(O)c(c(/C=N/N5CCN(C)CC5)c(O)c4c3C2=O)NC(=O)/C(C)=C\C=C\[C@H](C)[C@H](O)[C@@H](C)[C@@H](O)[C@@H](C)[C@H](OC(C)=O)[C@@H]1C [Rifampicin] | – | – | Activity on quiescent TG1 CSCs (hit compounds increasing ATP levels) (quiescent TG1 GSCs): yes
Br.C[N+]1([O-])[C@@H]2CC(OC(=O)[C@H](CO)c3ccccc3)C[C@H]1[C@@H]1O[C@@H]12 (stereo partly drawn) [Scopolamin-N-oxide hydrobromide] | – | – | Activity on quiescent TG1 CSCs (hit compounds increasing ATP levels) (quiescent TG1 GSCs): yes
CCC(C)(C)C(=O)O[C@H]1C[C@@H](C)C=C2C=C[C@H](C)[C@H](CC[C@@H]3C[C@@H](O)CC(=O)O3)[C@H]21 [Simvastatin] | – | yes | –
C[C@]12CC[C@H]3[C@@H](CC[C@]4(O)C[C@@H](O)CC[C@]34C=O)[C@@]1(O)CC[C@@H]2C1=CC(=O)OC1 [Strophanthidin] | – | yes | –
C[C@@H]1O[C@@H](O[C@H]2C[C@@H](O)[C@]3(CO)[C@H]4[C@H](O)C[C@]5(C)[C@@H](C6=CC(=O)OC6)CC[C@]5(O)[C@@H]4CC[C@]3(O)C2)[C@H](O)[C@H](O)[C@H]1O.O.O.O.O.O.O.O.O [Strophantine octahydrate] | – | yes | –
CSc1ccc2c(c1)N(CCC1CCCCN1C)c1ccccc1S2 (stereo not drawn) [Thioridazine hydrochloride] | yes | – | –
Cc1c(Cl)cccc1Nc1ccccc1C(=O)O [Tolfenamic acid] | – | yes | –
NC[C@H]1CC[C@H](C(=O)O)CC1 [Tranexamic acid] | – | – | Activity on quiescent TG1 CSCs (hit compounds increasing ATP levels) (quiescent TG1 GSCs): yes
CN1C(=O)OC(C)(C)C1=O [Trimethadione] | – | – | Activity on quiescent TG1 CSCs (hit compounds increasing ATP levels) (quiescent TG1 GSCs): yes
C[C@H](CCC(=O)O)[C@H]1CC[C@H]2[C@@H]3[C@@H](O)C[C@@H]4C[C@H](O)CC[C@]4(C)[C@H]3CC[C@]12C [Urosiol] | – | – | Activity on proliferating TG1 CSCs (hit compounds increasing ATP levels) (proliferating TG1 GSCs): yes
(S)-(-)-Atenolol | – | – | Activity on quiescent TG1 CSCs (hit compounds increasing ATP levels) (quiescent TG1 GSCs): yes
Meclocycline sulfosalicylate | – | yes | –
